The values below are quoted from earlier work in patent publication US11648240B2, “Pharmaceutical composition comprising famotidine, lidocaine and melatonin” (Cellix Bio Private Limited, priority 2021, dated 2023).

The target of data set [1] is CYP1A2 (Homo sapiens, UniProt P05177). To be noted: stated as believed, no test described.
For data set [2], the system named is human immunodeficiency virus. The settings on record: in-vitro studies.
Data set [3] has as its system sars-cov-2. The settings on record: in-vitro studies.

Chain of CYP1A2 (P05177 whole entry, species assumed): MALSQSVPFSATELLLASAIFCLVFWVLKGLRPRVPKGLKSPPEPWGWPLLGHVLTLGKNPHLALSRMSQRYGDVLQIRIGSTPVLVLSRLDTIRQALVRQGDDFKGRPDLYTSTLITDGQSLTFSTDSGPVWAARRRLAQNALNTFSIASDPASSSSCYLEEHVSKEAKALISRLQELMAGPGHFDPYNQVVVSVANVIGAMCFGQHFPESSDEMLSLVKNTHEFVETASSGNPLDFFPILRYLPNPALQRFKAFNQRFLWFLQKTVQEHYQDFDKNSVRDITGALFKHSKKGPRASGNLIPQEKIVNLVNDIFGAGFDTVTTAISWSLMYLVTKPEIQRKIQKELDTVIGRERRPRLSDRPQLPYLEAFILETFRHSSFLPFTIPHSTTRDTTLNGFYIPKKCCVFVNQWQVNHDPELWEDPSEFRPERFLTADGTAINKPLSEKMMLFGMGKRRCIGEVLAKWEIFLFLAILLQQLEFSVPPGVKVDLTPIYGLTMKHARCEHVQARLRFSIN

With `NC(N)=Nc1nc(CSCCC(N)=NS(N)(=O)=O)cs1` [Famotidine], in data set [1], the “metabolism through Cytochrome P450 system (CYP1A2)” value is recorded as 25-30%. In addition, the “human immunodeficiency virus replication” value in data set [2] is on record as “inhibits”. Moreover, in data set [3], the sars-cov-2 replication entry was “inhibits”.
